System: Ramos cells
Assay: Cytotoxicity in Ramos cells (cell death)
Assay type: cell-based
Protocol: The compounds listed in Table 7 were tested for cytotoxicity in Ramos cells. The assay was conducted as described in K. M. Johnson et al. Chemistry & Biology 2005, 12, 485-496.

Row | SMILES | EC50 [µM]
1 | O=C(N=C(Nc1ccc2[nH]c(=O)[nH]c2c1)Nc1ccccc1C(F)(F)F)c1ccc(Br)cc1 [Compound I-1] | > 10
2 | O=C(N=C(Nc1ccc2[nH]c(=O)[nH]c2c1)Nc1ccccc1C(F)(F)F)c1ccc(Cl)cc1 [Compound I-2] | > 10
3 | O=C(N=C(Nc1ccc2[nH]c(=O)[nH]c2c1)Nc1ccccc1C(F)(F)F)c1cccc(Cl)c1 [Compound I-3] | > 10
4 | O=C(N=C(Nc1ccc2[nH]c(=O)[nH]c2c1)Nc1ccccc1C(F)(F)F)c1ccc(F)cc1 [Compound I-4] | < 10
5 | CC(C)(C)c1ccccc1NC(=NC(=O)c1ccc(Br)cc1)Nc1ccc2[nH]c(=O)[nH]c2c1 [Compound I-5] | < 10
6 | CC(C)(C)c1ccccc1NC(=NC(=O)c1ccc(Cl)cc1)Nc1ccc2[nH]c(=O)[nH]c2c1 [Compound I-6] | < 10
7 | CC(C)(C)c1ccccc1NC(=NC(=O)c1cccc(Cl)c1)Nc1ccc2[nH]c(=O)[nH]c2c1 [Compound I-7] | < 10
8 | CC(C)(C)c1ccccc1NC(=NC(=O)c1ccc(F)cc1)Nc1ccc2[nH]c(=O)[nH]c2c1 [Compound I-8] | < 10
9 | O=C(N=C(Nc1ccc2ccccc2c1)Nc1ccc2[nH]c(=O)[nH]c2c1)c1ccc(Br)cc1 [Compound I-9] | > 10
10 | O=C(N=C(Nc1ccc2ccccc2c1)Nc1ccc2[nH]c(=O)[nH]c2c1)c1ccc(Cl)cc1 [Compound I-10] | > 10
11 | O=C(N=C(Nc1ccc2ccccc2c1)Nc1ccc2[nH]c(=O)[nH]c2c1)c1ccc(F)cc1 [Compound I-12] | > 10
12 | O=C(N=C(Nc1ccc(-c2ccccc2)cc1)Nc1ccc2[nH]c(=O)[nH]c2c1)c1ccc(Br)cc1 [Compound I-13] | > 10
13 | O=C(N=C(Nc1ccc(-c2ccccc2)cc1)Nc1ccc2[nH]c(=O)[nH]c2c1)c1ccc(Cl)cc1 [Compound I-14] | > 10
14 | O=C(N=C(Nc1ccc(-c2ccccc2)cc1)Nc1ccc2[nH]c(=O)[nH]c2c1)c1cccc(Cl)c1 [Compound I-15] | > 10
15 | O=C(N=C(Nc1ccc(-c2ccccc2)cc1)Nc1ccc2[nH]c(=O)[nH]c2c1)c1ccc(F)cc1 [Compound I-16] | > 10
16 | O=C(N=C(Nc1ccc2[nH]c(=O)oc2c1)Nc1ccccc1C(F)(F)F)c1ccc(Br)cc1 [Compound I-17] | < 10
17 | O=C(N=C(Nc1ccc2[nH]c(=O)oc2c1)Nc1ccccc1C(F)(F)F)c1ccc(Cl)cc1 [Compound I-18] | < 10
18 | O=C(N=C(Nc1ccc2[nH]c(=O)oc2c1)Nc1ccccc1C(F)(F)F)c1cccc(Cl)c1 [Compound I-19] | < 10
19 | O=C(N=C(Nc1ccc2[nH]c(=O)oc2c1)Nc1ccccc1C(F)(F)F)c1ccc(F)cc1 [Compound I-20] | > 10
20 | CC(C)(C)c1ccccc1NC(=NC(=O)c1ccc(Br)cc1)Nc1ccc2[nH]c(=O)oc2c1 [Compound I-21] | < 10
21 | CC(C)(C)c1ccccc1NC(=NC(=O)c1ccc(Cl)cc1)Nc1ccc2[nH]c(=O)oc2c1 [Compound I-22] | < 10
22 | CC(C)(C)c1ccccc1NC(=NC(=O)c1cccc(Cl)c1)Nc1ccc2[nH]c(=O)oc2c1 [Compound I-23] | < 10
23 | CC(C)(C)c1ccccc1NC(=NC(=O)c1ccc(F)cc1)Nc1ccc2[nH]c(=O)oc2c1 [Compound I-24] | < 10
24 | O=C(N=C(Nc1ccc2ccccc2c1)Nc1ccc2[nH]c(=O)oc2c1)c1ccc(Br)cc1 [Compound I-25] | < 10

Row | SMILES | EC50 [µM]
25 | O=C(N=C(Nc1ccc2ccccc2c1)Nc1ccc2[nH]c(=O)oc2c1)c1ccc(Cl)cc1 [Compound I-26] | < 10
26 | O=C(N=C(Nc1ccc2ccccc2c1)Nc1ccc2[nH]c(=O)oc2c1)c1cccc(Cl)c1 [Compound I-27] | < 10
27 | O=C(N=C(Nc1ccc2ccccc2c1)Nc1ccc2[nH]c(=O)oc2c1)c1ccc(F)cc1 [Compound I-28] | < 10
28 | O=C(N=C(Nc1ccc(-c2ccccc2)cc1)Nc1ccc2[nH]c(=O)oc2c1)c1ccc(Br)cc1 [Compound I-29] | < 10
29 | O=C(N=C(Nc1ccc(-c2ccccc2)cc1)Nc1ccc2[nH]c(=O)oc2c1)c1ccc(Cl)cc1 [Compound I-30] | < 10
30 | O=C(N=C(Nc1ccc(-c2ccccc2)cc1)Nc1ccc2[nH]c(=O)oc2c1)c1cccc(Cl)c1 [Compound I-31] | < 10
31 | O=C(N=C(Nc1ccc(-c2ccccc2)cc1)Nc1ccc2[nH]c(=O)oc2c1)c1ccc(F)cc1 [Compound I-32] | < 10
32 | O=C(N=C(Nc1cccc(C(F)(F)F)c1)Nc1ccc2[nH]c(=O)oc2c1)c1ccc(C(F)(F)F)cc1 [Compound I-85] | < 10
33 | CC(C)(C)c1ccccc1NC(=NC(=O)c1ccc(C(F)(F)F)cc1)Nc1ccc2[nH]c(=O)oc2c1 [Compound I-86] | < 10
34 | O=C(N=C(Nc1ccc(Cl)cc1)Nc1ccc2[nH]c(=O)oc2c1)c1ccc(C(F)(F)F)cc1 [Compound I-87] | < 10
35 | O=C(N=C(Nc1cccc(Cl)c1)Nc1ccc2[nH]c(=O)oc2c1)c1ccc(C(F)(F)F)cc1 [Compound I-88] | < 10
36 | O=C(N=C(Nc1cccc(C(F)(F)F)c1)Nc1ccc2[nH]c(=O)oc2c1)c1ccc(Cl)cc1 [Compound I-89] | < 10
37 | O=C(N=C(Nc1ccc(Cl)cc1)Nc1ccc2[nH]c(=O)oc2c1)c1ccc(Cl)cc1 [Compound I-90] | > 10
38 | O=C(N=C(Nc1cccc(Cl)c1)Nc1ccc2[nH]c(=O)oc2c1)c1ccc(Cl)cc1 [Compound I-91] | < 10
39 | O=C(N=C(Nc1ccc2[nH]c(=O)oc2c1)Nc1ccccc1C(F)(F)F)c1ccc(C(F)(F)F)cc1 [Compound I-92] | < 10
40 | O=C(N=C(Nc1ccc2[nH]c(=O)oc2c1)Nc1ccccc1Cl)c1ccc(C(F)(F)F)cc1 [Compound I-93] | < 10
41 | O=C(N=C(Nc1cc(F)cc(Cl)c1)Nc1ccc2[nH]c(=O)oc2c1)c1ccc(C(F)(F)F)cc1 [Compound I-94] | < 10
42 | CC(C)(C)c1ccccc1NC(=NC(=O)c1cccc(C(F)(F)F)c1)Nc1ccc2[nH]c(=O)oc2c1 [Compound I-95] | < 10
43 | CC(C)(C)c1ccccc1NC(=NC(=O)c1cccc(F)c1)Nc1ccc2[nH]c(=O)oc2c1 [Compound I-96] | < 10
44 | CC(C)(C)c1ccccc1NC(=NC(=O)c1ccc(F)c(F)c1)Nc1ccc2[nH]c(=O)oc2c1 [Compound I-98] | < 10
45 | O=C(N=C(Nc1ccc2[nH]c(=O)oc2c1)Nc1ccc(Cl)cc1F)c1cccc(C(F)(F)F)c1 [Compound I-99] | > 10
46 | CC(C)(C)c1ccccc1NC(=NC(=O)c1cccc(C#N)c1)Nc1ccc2[nH]c(=O)oc2c1 [Compound I-100] | < 10
47 | N#Cc1cccc(C(=O)N=C(Nc2ccc3[nH]c(=O)oc3c2)Nc2ccccc2C(F)(F)F)c1 [Compound I-101] | > 10
48 | N#Cc1cccc(C(=O)N=C(Nc2cccc(C(F)(F)F)c2)Nc2ccc3[nH]c(=O)oc3c2)c1 [Compound I-102] | < 10

Row | SMILES | EC50 [µM]
49 | CC(C)(C)c1ccccc1NC(=NC(=O)c1ccc(C#N)cc1)Nc1ccc2[nH]c(=O)oc2c1 [Compound I-103] | < 10
50 | N#Cc1ccc(C(=O)N=C(Nc2ccc3[nH]c(=O)oc3c2)Nc2ccccc2C(F)(F)F)cc1 [Compound I-104] | < 10
51 | N#Cc1ccc(C(=O)N=C(Nc2cccc(C(F)(F)F)c2)Nc2ccc3[nH]c(=O)oc3c2)cc1 [Compound I-105] | > 10
52 | CC(C)(C)c1ccccc1NC(=NC(=O)c1ccc(C(F)(F)F)c(F)c1)Nc1ccc2[nH]c(=O)oc2c1 [Compound I-106] | < 10
53 | CC(C)(C)c1ccccc1NC(=NC(=O)c1ccc(C(F)(F)F)cc1F)Nc1ccc2[nH]c(=O)oc2c1 [Compound I-107] | < 10
54 | CC(C)(C)c1cccc(NC(=NC(=O)c2ccc(C(F)(F)F)c(F)c2)Nc2ccc3[nH]c(=O)oc3c2)c1 [Compound I-108] | < 10
55 | O=C(N=C(Nc1cccc(C2CC2)c1)Nc1ccc2[nH]c(=O)oc2c1)c1cccc(C(F)(F)F)c1 [Compound I-109] | < 10
56 | N#Cc1cccc(C(=O)N=C(Nc2cccc(C3CC3)c2)Nc2ccc3[nH]c(=O)oc3c2)c1 [Compound I-110] | < 10
57 | CC(C)(C)c1cccc(NC(=NC(=O)c2cccc(C#N)c2)Nc2ccc3[nH]c(=O)oc3c2)c1 [Compound I-111] | < 10
58 | N#Cc1cccc(C(=O)N=C(Nc2ccc3[nH]c(=O)oc3c2)Nc2ccccc2C2CC2)c1 [Compound I-112] | < 10
59 | N#Cc1cccc(C(=O)N=C(Nc2ccc3[nH]c(=O)oc3c2)Nc2ccccc2Cl)c1 [Compound I-113] | < 10
60 | N#Cc1cccc(C(=O)N=C(Nc2cccc(Cl)c2)Nc2ccc3[nH]c(=O)oc3c2)c1 [Compound I-114] | < 10
61 | N#Cc1cccc(C(=O)N=C(Nc2ccc(Cl)cc2)Nc2ccc3[nH]c(=O)oc3c2)c1 [Compound I-115] | < 10
62 | N#Cc1cccc(C(=O)N=C(Nc2cc(Cl)cc(Cl)c2)Nc2ccc3[nH]c(=O)oc3c2)c1 [Compound I-116] | > 10
63 | N#Cc1cccc(C(=O)N=C(Nc2ccc(C(F)(F)F)cc2)Nc2ccc3[nH]c(=O)oc3c2)c1 [Compound I-118] | > 10
64 | CC(C)(C)c1ccc(NC(=NC(=O)c2cccc(C#N)c2)Nc2ccc3[nH]c(=O)oc3c2)cc1 [Compound I-119] | < 10
65 | CC(C)(C)c1cccc(NC(=NC(=O)c2ccc(C(F)(F)F)cc2)Nc2ccc3[nH]c(=O)oc3c2)c1 [Compound I-120] | < 10
66 | O=C(N=C(Nc1ccc2[nH]c(=O)oc2c1)Nc1ccccc1C1CC1)c1ccc(C(F)(F)F)cc1 [Compound I-121] | < 10
67 | O=C(N=C(Nc1cc(Cl)cc(Cl)c1)Nc1ccc2[nH]c(=O)oc2c1)c1ccc(C(F)(F)F)cc1 [Compound I-125] | < 10
68 | CC(C)(C)c1ccc(NC(=NC(=O)c2ccc(C(F)(F)F)cc2)Nc2ccc3[nH]c(=O)oc3c2)cc1 [Compound I-128] | < 10
69 | CC(C)(C)c1ccccc1NC(=NC(=O)c1ccc(C(F)(F)F)cc1)Nc1ccc2oc(=O)[nH]c2c1 [Compound I-129] | < 10
70 | CC(C)(C)c1ccccc1NC(=NC(=O)c1cccc(C#N)c1)Nc1ccc2oc(=O)[nH]c2c1 [Compound I-130] | > 10
71 | CC(C)(C)c1ccccc1NC(=NC(=O)c1ccc(C(F)(F)F)c(F)c1)Nc1ccc2oc(=O)[nH]c2c1 [Compound I-131] | < 10
